# According to patent US20050256092A1, “Antipsoriatic agent” (priority 2002, published 2005):
# pIC50: −log10 of the molar value. Read-outs that look alike come from different tables or passages of the source.
# Experiments:
# [1] = tested on: epidermis of hairless mice; assay: epidermis thickening in hairless mice, oral administration; format: in vivo; details: administered orally for 4 days, compared with active vitamin D3
# Excerpt: (§1) The effect of ED-71 administered percutaneously and orally was investigated using hairless mice.
# (§2) Percutaneous administration of a vitamin D3 derivative in hairless mice was reported to cause hyperplasia of the epidermis (British Journal of Dermatology 1995; 132; 841-852).
# [2] = tested on: adult-human-derived keratinocytes; assay: suppression of proliferation of cultured human keratinocytes ([3H]thymidine uptake); format: cell-based; details: for pIC50: [3H]thymidine uptake, cultured 3 days + 1 day, percentage of control, read-out: IC50 (mol/L) value, suppression of human keratinocyte proliferation
# Procedure: The effect of suppressing the proliferation of cultured human keratinocytes by 2β-(3-hydroxypropyloxy)-1α,25-dihydroxyvitamin D3 (hereinafter referred to as “ED-71”) was investigated.
# KGM-2 culture medium was added to each well of a 96-well plate (COSTAR 3595), and adult-human-derived keratinocytes (Clonetics) were seeded at a cell count of 1×10^3/well. Then, active vitamin D3 (1α,25-dihydroxyvitamin D3, produced by Solvay Pharmaceuticals) or ED-71 (produced by Chugai Seiyaku) was added to each well in a final concentration of 1×10^−10 mol/L, 1×10^−9 mol/L, 1×10^−8 mol/L, or 1×10^−7 mol/L. The cells were cultured in the KGM-2 culture medium at a cell concentration of 1×10^3/200 μl/well for 3 days at 37° C. in an atmosphere of 5% CO2 and 95% air. [^3H]thymidine was added in an amount of 7.4 kBq/well, and the cells were further cultured for 1 day. The culture medium was removed, and the cells were stripped off using 0.05% trypsin/EDTA (GIBCO BRL), and the amount of [^3H]thymidine taken up by the cells was measured with a liquid scintillation counter (1450 MICROBETA, Wallac). The cells cultured and treated in the same manner as described above, except for the addition of the active vitamin D3 or ED-71, were used as a control.
# In FIG. 1, the [^3H]thymidine uptake into the cells treated with each drug is expressed as a percentage of the [^3H]thymidine uptake into the control cells.
# [3] = tested on: epidermis of hairless mice; assay: epidermis thickening in hairless mice, percutaneous administration; format: in vivo; details: single percutaneous dose, compared with active vitamin D3
# Excerpt: as §1, §2
SMILES,thickening of the epidermis [1],"human keratinocyte proliferation suppressing activity, relative value with respect to active vitamin D3 ([2]; (IC50 value of active vitamin D3)/(IC50 value of ED-71))","pIC50 ([2]; Homo sapiens, Keratinocyte)",thickening of the epidermis [3],pIC50 [2]
"C=C1/C(=C\C=C2/CCC[C@@]3(C)C2CC[C@@H]3[C@H](C)CCCC(C)(C)O)C[C@@H](O)[C@@H](OCCCO)[C@@H]1O (stereo partly drawn) [ED-71, 2β-(3-hydroxypropyloxy)-1α,25-dihydroxyvitamin D3]",thickened the epidermis in a lower dose than the dose of active vitamin D3,≥ 305.23,> 10.00,thickened the epidermis in a lower dose than the dose of active vitamin D3,–
"C=C1/C(=C\C=C2/CCC[C@]3(C)[C@@H]([C@H](C)CCCC(C)(C)O)CC[C@@H]23)C[C@@H](O)C[C@@H]1O [active vitamin D3, 1α,25-dihydroxyvitamin D3, reference compound]",–,–,–,–,7.52
